Measurements taken from patent publication US9902986B2, “Enterobactin conjugates and uses thereof” (Massachusetts Institute of Technology, priority 2013, dated 2018).
“Also recorded” adds a separate entry of the source.

Legend:
[1] = test system: E. coli 25922; assay: Antimicrobial activity assay, E. coli 25922; assay type: cell-based, Escherichia coli; conditions: 50% MHB, 200 μM DP (iron-deficient), 30° C., t=19 h
Description: No antibiotic marker was included in these cultures. […] Bacterial growth was determined by measuring OD600 using a BIOTEK SYNERGY HT plate reader. Each well condition was prepared in duplicate, and at least three independent replicates were conducted on different days. The resulting mean OD600 are reported and the error bars are the standard deviation.
In another exemplary experiment, antibacterial activities of the conjugates were tested against E. coli 25922 in 50% MHB at 30° C., t=19 h. […] Under iron-deficient conditions, Ent-Amp and MGE-Amp provided a complete growth inhibition at 100 nM whereas 1 μM of DGE-Amp was required to provide a complete growth inhibition.

[2] = test system: E. coli CFT073; assay: Competition assay with native siderophores, E. coli CFT073; assay type: cell-based, Escherichia coli; conditions: conjugate 100 nM, varied Ent, MGE or DGE, 50% MHB, 200 μM DP, 30° C., t=19 h
Description: These assays were performed following the general procedure described herein except that varying concentrations of Ent, MGE, or DGE, each of which was unmodified, were mixed with Ent-Amp, Ent-Amx, MGE-Amp, MGE-Amx, DGE-Amp, or DGE-Amx. Ent was synthesized following a literature procedure^55 and stored as DMSO stock solution at −20° C. MGE and DGE were prepared from Ent using MceC and IroB as described for MGE-PEG3-N3 and DGE-PEG3-N3.
(§1) In another exemplary experiment, select conjugates (Ent-Amp, MGE-Amp, and DGE-Amp) with select native siderophores (Ent, MGE, and DGE) were tested against the uropathogenic strain E. coli CFT073 in 50% MHB, t=19 h, 30° C. 2,2′-dipyridyl (DP, 200 μM) was added to provide conditions of iron limitation. The concentration of the conjugates was fixed at 100 nM and the concentration of the native siderophores was varied.
as §1, with “(Ent-Amx, MGE-Amx,” for “(Ent-Amp, MGE-Amp,”, “DGE-Amx)” for “DGE-Amp)”, “DP (200” for “2,2′-dipyridyl (DP, 200”

[3] = test system: E. coli K-12; assay: Antimicrobial activity assay, E. coli K-12; assay type: cell-based, Escherichia coli; conditions: for concentrations at which E. coli K-12 was inhibited: inhibition attributed to iron deprivation
Description: (§2) Overnight cultures of the bacterial strains were prepared by inoculating 5 mL of LB with the bacterial freezer stocks and the cultures were incubated at 37° C. in a tabletop incubator shaker set at 150 rpm. The overnight culture grew to saturation and was diluted 1:100 into 5 mL of fresh LB medium containing DP (200 μM) and incubated at 37° C. with shaking at 150 rpm until OD600 reached 0.6. The cultures were subsequently diluted to an OD600 value of 0.001 in 50% MHB medium (11.5 g/L) with or without DP (200 μM). No antibiotic marker was included in these cultures. A 90-μL aliquot of the diluted culture was combined with a 10-μL aliquot of a 10× solution of the tested compounds in a 96-well plate, which was wrapped in […] and incubated at 30° C. with shaking at 150 rpm for 19 h. Bacterial growth was determined by measuring OD600 using a BIOTEK SYNERGY HT plate reader. Each well condition was prepared in duplicate, and at least three independent replicates were conducted on different days. The resulting mean OD600 are reported and the error bars are the standard deviation.
In an exemplary experiment, antibacterial activities of the conjugates were tested against E. coli K-12 in 50% MHB at 30° C., t=19 h. 2,2′-dipyridyl (DP, 200 μM) was added to provide conditions of iron limitation.

[4] = test system: E. coli CFT073; assay: Antimicrobial activity assay in the presence of lipocalin 2; assay type: cell-based, Escherichia coli; conditions: conjugate 100 nM, lcn2 1 μM, M9 minimal media, 37° C., 24 h
Description: The bacterial cultures were grown in modified M9 minimal medium (Blango, M. G.; Ott, E. M.; Erman, A.; Veranic, P.; Mulvey, M. A. Forced Resurgence and Targeting of Intracellular Uropathogenic Escherichia coli Reservoirs. PLoS One 2014, 9, e93327-e93335) (Na2HPO4 6.8 g/L, KH2PO4 3 g/L, NaCl 0.5 g/L, NH4Cl 1 g/L, 0.4% glucose, 2 mM MgSO4, 0.1 mM CaCl2, 0.2% casein amino acids, and 16.5 μg/mL of thiamine) overnight. […] The cultures were serially diluted to an OD600 value of 0.00001 in fresh modified M9 minimal medium. Lipocalin 2 (Lcn2) was diluted into PBS buffer to a concentration of 20 μM upon arrival and frozen at −20° C. until use. Bovine serum albumin (BSA, Sigma-Aldrich) was prepared in PBS buffer to achieve a concentration of 20 μM. […] The bacterial growth was determined by measuring OD600 using the plate reader. […] The resulting mean OD600 was reported, and the error bars were the standard deviation. […] In contrast, Lcn2 had no effect of the antibacterial activity of MGE-Amp, MGE-Amx, DGE-Amp, or DGE-Amx.

[5] = test system: E. coli B; assay: Antimicrobial activity assay, E. coli B; assay type: cell-based, Escherichia coli; conditions: 50% MHB, 30° C., t=19 h
Description: as §2
In another exemplary experiment, antibacterial activities of the conjugates were tested against E. coli B in 50% MHB at 30° C., t=19 h. DP (200 μM) was added to provide conditions of iron limitation.

[6] = test system: Salmonella enterica serovar Typhimurium (STM) IR715; assay: Antibacterial activity assay, Salmonella Typhimurium; assay type: cell-based; conditions: 50% MHB, 100 μM 2,2′-dipyridyl, 30° C., t=19 h
Description: FIGS. 12A and 12B show exemplary antibacterial activities of Ent-Amp, Ent-Amx, MGE-Amp, MGE-Amx, DGE-Amp, and DGE-Amx against Salmonella enterica serovar Typhimurium (STM) IR715 (50% MHB with 100 μM 2,2′-dipyridyl to provide conditions of iron limitation, 30° C., t=19 h). (FIG. 12A) Antibacterial activity of Amp and the Amp-containing conjugates (Ent-Amp, MGE-Amp, and DGE-Amp). […] (FIG. 12B) Antibacterial activity of Amx and the Amx-containing conjugates (Ent-Amx, MGE-Amx, and DGE-Amx).

[7] = test system: E. coli H9049; assay: Antimicrobial activity assay, E. coli H9049; assay type: cell-based, Escherichia coli; conditions: 50% MHB, 30° C., t=19 h
Description: as §2
In another exemplary experiment, antibacterial activities of the conjugates were tested against E. coli H9049 in 50% MHB at 30° C., t=19 h. DP (200 μM) was added to provide conditions of iron limitation.

[8] = 50% MHB, 200 μM DP, 30° C., t=19 h

| Compound | concentration required to provide complete growth inhibition [1] | attenuation of antibacterial activity by native siderophores [2] | antibacterial activity at 100 nM [3, 8] | concentration at which growth inhibition was observed (attributed to iron deprivation) [3, 8] | concentrations at which E. coli K-12 was inhibited [3] | effect of lipocalin-2 (lcn2) on antibacterial activity [4] | antibacterial activity at 100 nM ([5]; 200 μM DP) | concentration at which growth inhibition was observed (attributed to iron deprivation) ([5]; 200 μM DP) | antibacterial activity relative to the unmodified antibiotic [6] | antibacterial activity at 100 nM ([7]; 200 μM DP) | concentration at which growth inhibition was observed (attributed to iron deprivation) ([7]; 200 μM DP) | concentration providing complete growth inhibition [1] | concentration providing complete growth inhibition ([3]; 50% MHB, 200 μM DP (iron-deficient), 30° C., t=19 h) | concentration providing complete growth inhibition ([5]; 200 μM DP (iron-deficient)) | concentration providing complete growth inhibition ([7]; 200 μM DP (iron-deficient)) | antibacterial activity, comparison [3, 8] | antibacterial activity, comparison ([5]; 200 μM DP) | antibacterial activity, comparison ([7]; 200 μM DP) |
| --- | --- | --- | --- | --- | --- | --- | --- | --- | --- | --- | --- | --- | --- | --- | --- | --- | --- | --- |
| CC1(C)SC2C(NC(=O)C(NC(=O)CCCc3cn(CCOCCOCCOCCNC(=O)c4cc(O)c(O)c(C(=O)NC5COC(=O)C(NC(=O)c6cc(C7OC(CO)C(O)C(O)C7O)cc(O)c6O)COC(=O)C(NC(=O)c6cc(C7OC(CO)C(O)C(O)C7O)cc(O)c6O)COC5=O)c4)nn3)c3ccccc3)C(=O)N2C1C(=O)O (centres unmarked) [DGE-Amp] | 1 µM | attenuated by Ent, MGE, and DGE | inactive | 10 µM | micromolar concentrations | no effect; also recorded: unaffected; also recorded: not attenuated | inactive | 10 µM | enhanced antibacterial activity relative to unmodified Amp | inactive | 10 µM |  |  |  |  |  |  |  |
| CC1(C)SC2C(NC(=O)C(NC(=O)CCCc3cn(CCOCCOCCOCCNC(=O)c4cc(O)c(O)c(C(=O)NC5COC(=O)C(NC(=O)c6cccc(O)c6O)COC(=O)C(NC(=O)c6cccc(O)c6O)COC5=O)c4)nn3)c3ccccc3)C(=O)N2C1C(=O)O (stereo not drawn) [Ent-Amp] |  | only attenuated in the presence of Ent and MGE |  |  |  | attenuated in the presence of Lcn2 |  |  | enhanced antibacterial activity relative to unmodified Amp |  |  | 100 nM | 100 nM | 100 nM | 100 nM |  |  |  |
| CC1(C)SC2C(NC(=O)C(NC(=O)CCCc3cn(CCOCCOCCOCCNC(=O)c4cc(O)c(O)c(C(=O)NC5COC(=O)C(NC(=O)c6cccc(O)c6O)COC(=O)C(NC(=O)c6cccc(O)c6O)COC5=O)c4)nn3)c3ccc(O)cc3)C(=O)N2C1C(=O)O (stereo not drawn) [Ent-Amx] |  | only attenuated in the presence of Ent or MGE |  |  |  | attenuated in the presence of Lcn2 |  |  | enhanced antibacterial activity relative to unmodified Amx |  |  |  |  |  |  |  |  |  |
| CC1(C)SC2C(NC(=O)C(NC(=O)CCCc3cn(CCOCCOCCOCCNC(=O)c4cc(O)c(O)c(C(=O)NC5COC(=O)C(NC(=O)c6cc(C7OC(CO)C(O)C(O)C7O)cc(O)c6O)COC(=O)C(NC(=O)c6cccc(O)c6O)COC5=O)c4)nn3)c3ccccc3)C(=O)N2C1C(=O)O (centres unmarked) [MGE-Amp] |  | attenuated by Ent, MGE, and DGE | inactive |  | micromolar concentrations | no effect; also recorded: unaffected; also recorded: not attenuated | inactive |  | enhanced antibacterial activity relative to unmodified Amp | inactive |  | 100 nM |  |  |  | more active against the bacteria than DGE-Amp | more active against the bacteria than DGE-Amp | more active against the bacteria than DGE-Amp |
